# Experiments:
# MDA-MB-231 tumours = assay: MDA-MB-231 breast xenograft model; assay type: in vivo, nude mice
# Protocol: (§1) In the orthotopic Hep3b2.1-7 human liver cancer model, treatment of mice (n=10) began 14 days after inoculation of 2.5 × 10^6 cells. […] To initiate tumour xenografts, MDA-MB-231, PC3, Cal27 and HepG2 cells were injected s.c. into nude mice (n=8) at 4, 5, 2 and 2 × 10^7 cells ml^−1, respectively. […] In the B16F0 lung metastasis model, 2 × 10^5 cells were injected via the tail vein of C57Bl6 mice (n=8). […] Surface lung macrometastases were counted for each group (n=9) upon study termination. In the intrasplenic HT-29 xenograft model, 1 × 10^6 cells in 100 μl were injected into the spleen. […] Solid tumours were measured in two dimensions (length and width) and the tumour volume (cm^3) was calculated using the equation: V=length × width^2 × π/6. The anti-tumour activity was expressed as percent tumour growth inhibition (%TGI). Further details are available in Supplementary Methods. […]
# antibody. […]
# staining. For quantification, three independent visual fields (20x magnification) were chosen and positive stained spots or vessels with identifiable lumen were counted.
# Angiogenesis inhibition and induction were calculated using the equations: […]
# regimen both before and after tumour cell inoculation (days -6, -3, 0, +3, +6) or only after tumour cell inoculation (days 0, +3, +6). B16 cell (2x105) were inoculated via tail vein injections and mice were culled and assessed for lung metastases on day 12. […]
# B16 = assay: in vitro cytotoxicity (LC50); assay type: cell-based; conditions: read-out: LC50 (concentration lethal to 50% of cells)
# coagulation = tested on: coagulation; parameters: method as in Dredge et al, 2010; conditions: compared with PI-88 or earlier PG500 series compounds; ref Dredge et al, 2010; cited from earlier work
# heparanase = target: heparanase; parameters: method as in Dredge et al, 2010; conditions: ref Dredge et al, 2010; read-out: Ki (heparanase inhibitor); cited from earlier work
# [1] = tested on: Lewis Lung Carcinoma (LL/2) tumour angiogenesis; assay: CD31 staining of primary LL/2 tumours; assay type: in vivo, mice
# Protocol: Angiogenesis in vivo was evaluated using the Angiosponge model in which subcutaneously implanted, agarose-captured FGF2 gelfoam sterile sponges (Pfizer, West Ryde, Australia) induces vascularisation over a 10-day period responsive to angiogenesis inhibition as determined by the number of vessels with identifiable lumen that stained positive for CD31/PECAM-1, an antigen present specifically on endothelial cells ([McCarty et al, 2002]). PG545 was administered s.c. on the flank distal to the AngioSponge implant. This method was also used to examine five medium-sized primary tumours from each group of Lewis Lung Carcinoma (LL/2)-bearing mice.
# as §1, with “termination.” for “termination. In the intrasplenic HT-29 xenograft model, 1 × 10^6 cells in 100 μl were injected into the spleen.”, “(%TGI).” for “(%TGI). Further details are available in Supplementary Methods.”
smiles,measurement,setting,value
CC(C)CCC[C@@H](C)[C@H]1CCC2C3CCC4C[C@@H](O[C@@H]5O[C@H](COS(=O)(=O)[O-])[C@@H](O[C@H]6O[C@H](COS(=O)(=O)[O-])[C@@H](O[C@H]7O[C@H](COS(=O)(=O)[O-])[C@@H](O[C@H]8O[C@H](COS(=O)(=O)[O-])[C@@H](OS(=O)(=O)[O-])[C@H](OS(=O)(=O)[O-])[C@H]8OS(=O)(=O)[O-])[C@H](OS(=O)(=O)[O-])[C@H]7OS(=O)(=O)[O-])[C@H](OS(=O)(=O)[O-])[C@H]6OS(=O)(=O)[O-])[C@H](OS(=O)(=O)[O-])[C@H]5OS(=O)(=O)[O-])CC[C@]4(C)C3CC[C@@]21C.[Na+].[Na+].[Na+].[Na+].[Na+].[Na+].[Na+].[Na+].[Na+].[Na+].[Na+].[Na+].[Na+] (stereo partly shown) [PG545],TGI,MDA-MB-231 tumours; 30 mg kg^−1 once-weekly s.c.,69%
same,TGI,MDA-MB-231 tumours; 30 mg kg^−1 twice-weekly s.c.,59%
same,CC50,B16,> 200000 nM
same,anti-coagulant properties,coagulation,mild anti-coagulant properties
same,Ki,heparanase,6 nM
same,decrease in CD31 endothelial staining in tumours,[1]; 20 mg kg^−1 once-weekly s.c.,30%
same,decrease in CD31 endothelial staining in tumours,[1]; 40 mg kg^−1 once-weekly s.c.,22%

# From PMC3049593 (British Journal of Cancer, 2011)
